Values after ≈ are worked out from the molar mass of the structure shown.
Legend:
[1] = Inhibition of gamma-secretase-mediated amyloid beta 40/42 accumulation assessed as beta-CTF cleavage by cell-based sandwich ELISA
[2] = Inhibition of gamma-secretase by Notch-1 cleavage assay
[3] = Selectivity ratio of EC50 for gamma-secretase assessed as Notch-1 cleavage to EC50 for gamma-secretase assessed as beta-CTF cleavage
[4] = Solubility of compound at pH 7.4; format: physicochemical; settings: buffer
Cytochrome P450 2C9 = Cytochrome P450 2C9 (Homo sapiens, UniProt P11712); test: Inhibition of CYP2C9 at 50 uM; format: ADME
Cytochrome P450 3A4 = Cytochrome P450 3A4 (Homo sapiens, UniProt P08684); test: Inhibition of CYP3A4 at 50 uM; format: ADME
Cytochrome P450 2D6 = Cytochrome P450 2D6 (Homo sapiens, UniProt P10635); test: Inhibition of CYP2D6 at 50 uM; format: ADME
Mus musculus [5] = test: Reduction in amyloid beta 40 level in Tg2576 mouse brain at 20 mg/kg, sc; format: functional; design: scale not given: the % may be the effect or the level left; settings: route subcutaneous
Mus musculus [6] = test: Reduction in amyloid beta 40 level in Tg2576 mouse brain at 1 mg/kg, sc administered subchronically for 5 days; format: functional; design: scale not given: the % may be the effect or the level left; settings: route subcutaneous
Mus musculus [7] = test: Reduction in amyloid beta 42 level in Tg2576 mouse brain at 1 mg/kg, sc administered subchronically for 5 days; format: functional; design: scale not given: the % may be the effect or the level left; settings: route subcutaneous

Chain of Cytochrome P450 2D6 (P10635 whole entry): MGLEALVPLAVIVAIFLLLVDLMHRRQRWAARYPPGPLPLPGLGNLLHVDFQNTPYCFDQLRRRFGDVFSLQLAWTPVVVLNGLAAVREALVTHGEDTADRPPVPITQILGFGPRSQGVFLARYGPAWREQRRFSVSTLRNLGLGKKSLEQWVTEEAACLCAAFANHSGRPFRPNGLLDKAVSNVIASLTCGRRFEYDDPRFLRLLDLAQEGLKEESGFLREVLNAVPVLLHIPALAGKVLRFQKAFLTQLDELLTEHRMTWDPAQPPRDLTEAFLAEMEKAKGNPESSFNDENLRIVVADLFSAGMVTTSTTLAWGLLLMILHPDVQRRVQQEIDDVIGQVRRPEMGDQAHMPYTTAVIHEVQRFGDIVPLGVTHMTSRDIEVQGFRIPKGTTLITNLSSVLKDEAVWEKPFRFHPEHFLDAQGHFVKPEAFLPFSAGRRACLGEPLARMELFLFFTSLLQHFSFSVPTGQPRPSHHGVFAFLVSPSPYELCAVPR
Chain of Cytochrome P450 3A4 (P08684 whole entry): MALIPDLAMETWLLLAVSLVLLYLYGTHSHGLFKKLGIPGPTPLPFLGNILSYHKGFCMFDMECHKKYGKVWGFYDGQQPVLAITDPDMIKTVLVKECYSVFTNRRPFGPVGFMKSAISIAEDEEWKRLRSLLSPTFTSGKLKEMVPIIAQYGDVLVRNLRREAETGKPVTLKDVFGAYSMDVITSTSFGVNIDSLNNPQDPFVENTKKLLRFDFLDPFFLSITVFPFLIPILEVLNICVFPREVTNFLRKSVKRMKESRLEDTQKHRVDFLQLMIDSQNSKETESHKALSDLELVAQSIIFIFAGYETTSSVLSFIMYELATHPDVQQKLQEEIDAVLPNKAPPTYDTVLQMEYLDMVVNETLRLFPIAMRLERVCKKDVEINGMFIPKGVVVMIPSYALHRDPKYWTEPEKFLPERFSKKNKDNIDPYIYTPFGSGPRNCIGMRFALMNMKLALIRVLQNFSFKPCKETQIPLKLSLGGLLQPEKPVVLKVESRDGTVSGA
Chain of Cytochrome P450 2C9 (P11712 whole entry): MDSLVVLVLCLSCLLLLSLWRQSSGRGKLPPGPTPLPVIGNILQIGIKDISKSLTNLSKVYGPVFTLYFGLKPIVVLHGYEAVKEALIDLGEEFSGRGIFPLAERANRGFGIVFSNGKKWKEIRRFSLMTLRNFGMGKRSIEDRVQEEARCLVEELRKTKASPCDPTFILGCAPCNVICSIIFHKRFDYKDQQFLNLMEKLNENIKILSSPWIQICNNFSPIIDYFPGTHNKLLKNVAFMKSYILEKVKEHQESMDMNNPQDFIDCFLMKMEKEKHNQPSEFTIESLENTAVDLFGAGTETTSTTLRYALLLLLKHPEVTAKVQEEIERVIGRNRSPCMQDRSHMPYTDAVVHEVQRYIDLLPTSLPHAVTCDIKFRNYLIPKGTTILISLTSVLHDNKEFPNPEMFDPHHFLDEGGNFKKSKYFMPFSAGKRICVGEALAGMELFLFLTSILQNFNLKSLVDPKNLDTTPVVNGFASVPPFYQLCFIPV

Row | Compound | EC50 [1] | also measured
1 | O=S(=O)(N[C@H](CO)C(c1ccccc1)c1ccccc1)c1ccc(Cl)s1 | > 30 µM | 
2 | O=S(=O)(N[C@H](CO)C1CCNCC1)c1ccc(Cl)s1 | > 30 µM | 
3 | CC[C@H](C)[C@@H](CO)NS(=O)(=O)c1ccc(Cl)cc1 | 5.5 µM | 
4 | CCCCC[C@H](C)[C@@H](CO)NS(=O)(=O)c1ccc(Cl)s1 | 0.264 µM | 
5 | CC[C@H](C)[C@@H](CO)NS(=O)(=O)c1cc(Cl)c(Cl)s1 | 1.05 µM | 
6 | CCCCCC[C@H](CC)[C@@H](CO)NS(=O)(=O)c1ccc(Cl)s1 | 0.429 µM | 
7 | CCC[C@H](CC)[C@@H](CO)NS(=O)(=O)c1ccc(Cl)s1 | 0.029 µM | 
8 | CC[C@H](C)[C@@H](CO)NS(=O)(=O)c1ccc(Cl)o1 | > 30 µM | 
9 | CCC[C@H](CC(C)C)[C@@H](CO)NS(=O)(=O)c1ccc(Cl)s1 | 0.253 µM | 
10 | CC[C@H](C)[C@@H](CO)NS(=O)(=O)c1ccc(Br)cc1 | 2.2 µM | 
11 | O=S(=O)(N[C@H](CO)C1CCCCC1)c1ccc(Cl)s1 | 0.82 µM | 
12 | CCC(CC)[C@@H](CO)NS(=O)(=O)c1ccc(Cl)s1 [GSI-136] | 0.028 µM | EC50 [2]: 0.266 µM; Activity [3]: 9.5; solubility [4]: 0.037 µg/mL (≈ 0.119 µM); Activity (Cytochrome P450 2C9): Not Active; Activity (Cytochrome P450 3A4): Not Active; Activity (Cytochrome P450 2D6): Not Active; Activity (Mus musculus [5]): 55%; Activity (Mus musculus [6]): 25%; Activity (Mus musculus [7]): 15%
13 | CCCCCC[C@@H](CCCCC)[C@@H](CO)NS(=O)(=O)c1ccc(Cl)s1 | > 30 µM | 
14 | CC(C)[C@@](C)(CO)NS(=O)(=O)c1ccc(Cl)s1 | 0.49 µM | 
15 | CCCCC[C@H](CC(C)C)[C@@H](CO)NS(=O)(=O)c1ccc(Cl)s1 | 20.7 µM | 
16 | CC(C)C[C@@H](C)[C@@H](CO)NS(=O)(=O)c1ccc(Cl)s1 | 0.115 µM | 
17 | CC[C@H](CC(C)C)[C@@H](CO)NS(=O)(=O)c1ccc(Cl)s1 | 0.028 µM | 
18 | CCCCC[C@H](c1ccccc1)[C@@H](CO)NS(=O)(=O)c1ccc(Cl)s1 | > 30 µM | 
19 | CC[C@H](C)[C@@H](CO)NS(=O)(=O)c1ccc(F)s1 | 0.46 µM | 
20 | CCC[C@H](c1ccccc1)[C@@H](CO)NS(=O)(=O)c1ccc(Cl)s1 | 4.05 µM | 

Row | Compound | EC50 [1] | also measured
21 | CC[C@@H](C)[C@@H](CO)NS(=O)(=O)c1ccc(Cl)s1 | 0.14 µM | 
22 | CC[C@H](C)[C@@H](CO)NS(=O)(=O)c1cccs1 | 7 µM | 
23 | CC(C)C[C@@H](CO)NS(=O)(=O)c1ccc(Cl)s1 | > 30 µM | 
24 | CC[C@@H](C)[C@H](CO)NS(=O)(=O)c1ccc(Cl)s1 | 7.6 µM | 
25 | CC(C)(C)[C@@H](CO)NS(=O)(=O)c1ccc(Cl)s1 | 7.5 µM | 
26 | CCCC(CCC)[C@@H](CO)NS(=O)(=O)c1ccc(Cl)s1 | 0.111 µM | 
27 | CC[C@H](C)[C@@H](CO)NS(=O)(=O)c1sc(Cl)cc1Br | > 30 µM | 
28 | CC[C@H](C)[C@@H](CO)NS(=O)(=O)c1ccc(Br)s1 | 0.16 µM | 
29 | CCCCCC[C@@H](C)[C@@H](CO)NS(=O)(=O)c1ccc(Cl)s1 | 0.212 µM | 
30 | CCCCC[C@H](CC)[C@@H](CO)NS(=O)(=O)c1ccc(Cl)s1 | 0.072 µM | 
31 | CCCCC(CCCC)[C@@H](CO)NS(=O)(=O)c1ccc(Cl)s1 | 4.18 µM | 
32 | CCC[C@H](C)[C@@H](CO)NS(=O)(=O)c1ccc(Cl)s1 | 0.103 µM | 
33 | C[C@@H](c1ccccc1)[C@@H](CO)NS(=O)(=O)c1ccc(Cl)s1 | 3.91 µM | 
34 | CCCCCC[C@@H](C(C)C)[C@@H](CO)NS(=O)(=O)c1ccc(Cl)s1 | 0.071 µM | 
35 | O=S(=O)(N[C@H](CO)C1CCCC1)c1ccc(Cl)s1 | 0.58 µM | 
36 | CCCCCC[C@@H](CC)[C@@H](CO)NS(=O)(=O)c1ccc(Cl)s1 | 0.043 µM | 
37 | CC[C@H](C)[C@@H](CO)NS(=O)(=O)c1ccc(Cl)s1 | 0.17 µM | 
38 | CCCCCC[C@@H](CCC)[C@@H](CO)NS(=O)(=O)c1ccc(Cl)s1 | 0.826 µM | 
39 | CC(C)[C@@H](CO)NS(=O)(=O)c1ccc(Cl)s1 | 0.82 µM | 
40 | CC[C@H](C)[C@@H](CO)NS(=O)(=O)c1ccccc1 | 4.7 µM | 

Reference: ChEMBL document CHEMBL1143272, “(S)-N-(5-Chlorothiophene-2-sulfonyl)-beta,beta-diethylalaninol a Notch-1-sparing gamma-secretase inhibitor” (Bioorg Med Chem Lett, 2009)
